“And” between values parts separate entries of the source, which are not always exact repeats. Identical values can stand only once. Inconclusive results and toxic doses are left out.
Test system: P388 leukemia ip, CD2F1 mice, survival T/C
Test: NCI In Vivo Anticancer Drug Screen. Data for tumor model P388 Leukemia (intraperitoneal) in CD2F1 (CDF1) mice
Conditions: endpoint: median survival time, higher = longer survival
Summary of the method: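 Mice carrying the transplanted tumor received test compound or vehicle. Survival was recorded in each group, and the value is the treated-group measurement divided by that of the vehicle-treated control group.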

[1] = dose: 50.0 mg/kg/injection, schedule: Q01DX005 (ip), vehicle: Klucel (hydroxypropylcellulose) (HPC)
[2] = dose: 100.0 mg/kg/injection, schedule: Q01DX005 (ip), vehicle: Klucel (hydroxypropylcellulose) (HPC)
[3] = dose: 200.0 mg/kg/injection, schedule: Q01DX005 (ip), vehicle: Klucel (hydroxypropylcellulose) (HPC)
[4] = dose: 50.0 mg/kg/injection, schedule: Q01DX005 (ip), vehicle: saline with Tween-80
[5] = dose: 100.0 mg/kg/injection, schedule: Q01DX005 (ip), vehicle: saline with Tween-80

CCC(c1ccc(OC)cc1)C(NCC(=O)N/N=C1/C=C2CC[C@H]3[C@@H]4CC[C@H](O)[C@@]4(C)CC[C@@H]3[C@@]2(C)CC1)c1ccc(OC)cc1 (some centres not stated)
T/C (dose: 100.0 mg/kg/injection, schedule: Q01DX001 (ip), vehicle: saline with Tween-80): 100 % of control
T/C (dose: 200.0 mg/kg/injection, schedule: Q01DX001 (ip), vehicle: saline with Tween-80): 110 % of control
T/C (dose: 400.0 mg/kg/injection, schedule: Q01DX001 (ip), vehicle: saline with Tween-80): 107 % of control

CCCCCn1c(Cl)c(/C=N\Nc2cccc([N+](=O)[O-])c2)c2ccccc21
T/C (dose: 100.0 mg/kg/injection, schedule: Q04DX003 (ip), vehicle: saline with Tween-80): 100 % of control
T/C (dose: 200.0 mg/kg/injection, schedule: Q04DX003 (ip), vehicle: saline with Tween-80): 91 % of control
T/C (dose: 400.0 mg/kg/injection, schedule: Q04DX003 (ip), vehicle: saline with Tween-80): 90 % of control

CN(C)C(=S)SSC(C)(C)C
T/C [1]: 100 % of control
T/C [2]: 99 % of control
T/C [3]: 100 % of control

CC1(C)COC(=O)C1=C(C#N)C#N
T/C (dose: 25.0 mg/kg/injection, schedule: Q04DX003 (ip), vehicle: saline): 100 % of control
T/C (dose: 50.0 mg/kg/injection, schedule: Q04DX003 (ip), vehicle: saline): 98 % of control
T/C (dose: 100.0 mg/kg/injection, schedule: Q04DX003 (ip), vehicle: saline): 102 % of control

CCCCCCCCCCCCNCC(=O)O
T/C (dose: 25.0 mg/kg/injection, schedule: Q01DX009 (ip), vehicle: saline): 109 % of control
T/C (dose: 50.0 mg/kg/injection, schedule: Q01DX009 (ip), vehicle: saline): 113 % of control

C/C(=N\O)C1CC2C=C(C#N)C1N(Cc1ccccc1)C2 (configuration not stated)
T/C (dose: 8.75 mg/kg/injection, schedule: Q01DX005 (ip), vehicle: Klucel (hydroxypropylcellulose) (HPC)): 96 % of control
T/C (dose: 17.5 mg/kg/injection, schedule: Q01DX005 (ip), vehicle: Klucel (hydroxypropylcellulose) (HPC)): 93 % of control
T/C (dose: 35.0 mg/kg/injection, schedule: Q01DX005 (ip), vehicle: Klucel (hydroxypropylcellulose) (HPC)): 123 % of control

COC1CC(C23C4CC2C3C2CC/C=C\CCC24)CC1OC (configuration not stated)
T/C (dose: 50.0 mg/kg/injection, schedule: Q01DX009 (ip), vehicle: saline with Tween-80): 98 % of control
T/C (dose: 100.0 mg/kg/injection, schedule: Q01DX009 (ip), vehicle: saline with Tween-80): 100 % of control
T/C (dose: 200.0 mg/kg/injection, schedule: Q01DX009 (ip), vehicle: saline with Tween-80): 102 % of control

CSc1nc(N)c(NS(=O)(=O)c2cccc([N+](=O)[O-])c2)c(=O)[nH]1
T/C (dose: 60.0 mg/kg/injection, schedule: Q01DX005 (ip), vehicle: Klucel (hydroxypropylcellulose) (HPC)): 92 % of control
T/C (dose: 120.0 mg/kg/injection, schedule: Q01DX005 (ip), vehicle: Klucel (hydroxypropylcellulose) (HPC)): 94 % of control
T/C (dose: 240.0 mg/kg/injection, schedule: Q01DX005 (ip), vehicle: Klucel (hydroxypropylcellulose) (HPC)): 88 % of control

O=C1c2ccccc2-n2c1nc1ccc([N+](=O)[O-])cc1c2=O
T/C [1]: 103 % of control
T/C [2]: 97 % of control
T/C [3]: 94 % of control
T/C (dose: 400.0 mg/kg/injection, schedule: Q04DX002 (ip), vehicle: Klucel (hydroxypropylcellulose) (HPC)): 96 % of control

COc1ccc(/C=N\N=C(/[O-])c2ccccc2O)cc1.COc1ccc(/C=N\N=C(/[O-])c2ccccc2O)cc1.[Ni+2]
T/C (dose: 50.0 mg/kg/injection, schedule: Q04DX002 (ip), vehicle: saline with Tween-80): 93 % of control
T/C (dose: 100.0 mg/kg/injection, schedule: Q04DX002 (ip), vehicle: saline with Tween-80): 86 % of control
T/C (dose: 200.0 mg/kg/injection, schedule: Q04DX002 (ip), vehicle: saline with Tween-80): 88 % of control

Oc1ccc2ccccc2c1N=Nc1nn[nH]n1
T/C [4]: 99 % of control
T/C [5]: 106 % of control

O=C(Nc1ccc(OCC2=NCCN2)cc1)c1ccc(C(=O)Nc2ccc(OCC3=NCCN3)cc2)cc1
T/C [4]: 108 % of control
T/C [5]: 103 % of control
T/C (dose: 200.0 mg/kg/injection, schedule: Q01DX005 (ip), vehicle: saline with Tween-80): 105 % of control

O=NN(CCCl)C(=O)OCCCSSCCCOC(=O)N(CCCl)N=O
T/C (dose: 50.0 mg/kg/injection, schedule: Q01DX009 (ip), vehicle: water): 120 % of control

CN(C)c1ccc(-c2nn(C)c3nc(=O)n(C)c(=O)c-3[n+]2[O-])cc1
T/C (dose: 1.56 mg/kg/injection, schedule: Q01DX001 (ip), vehicle: saline): 101 % of control
T/C (dose: 3.12 mg/kg/injection, schedule: Q01DX001 (ip), vehicle: saline): 103 % of control
T/C (dose: 6.25 mg/kg/injection, schedule: Q01DX001 (ip), vehicle: saline): 100 % of control and 103 % of control

O=c1[nH]c2cc(Cl)ccc2nc1/C=C(\O)c1ccc(O)cc1
T/C (dose: 60.0 mg/kg/injection, schedule: Q01DX005 (ip), vehicle: saline with Tween-80): 102 % of control
T/C (dose: 120.0 mg/kg/injection, schedule: Q01DX005 (ip), vehicle: saline with Tween-80): 95 % of control
T/C (dose: 240.0 mg/kg/injection, schedule: Q01DX005 (ip), vehicle: saline with Tween-80): 95 % of control

Reference: PubChem BioAssay AID330 (DTP/NCI, 2004)
